Among the test systems are HOP-62 NSCLC; SNB-75 CNS; OVCAR-4 ovarian; SK-MEL-28 melanoma; SK-MEL-5 melanoma; HCC-2998 colon; UACC-62 melanoma; NCI-H522 lung; IGROV1 ovarian.
What all share (experiment): growth of human tumour cells (NCI), 48 h

SMILES strings stand for the structures.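 Briefly, cells in 96-well plates were exposed to five compound concentrations for 48 h, and endpoints were estimated by linear interpolation. GI50 marks 50% less growth. At the TGI there is no net growth.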

Consider `CC(=O)OC1CC2C(C)(C)C(=O)C=C[C@]2(C)C2CCC3(C)C(c4ccoc4)C(=O)[C@H]4O[C@]43[C@]12C` (stereo partly drawn), for which the TGI was 42.7 µM in the experiment with HOP-62 NSCLC; greater than 100 µM in the experiment on SNB-75 CNS; greater than 100 µM with OVCAR-4 ovarian; 32.7 µM with SK-MEL-28 melanoma; 32.9 µM with SK-MEL-5 melanoma; 32.2 µM with HCC-2998 colon. Moreover, the figures for the TGI with UACC-62 melanoma, in the experiment on NCI-H522 lung and in the experiment with IGROV1 ovarian were 64.2 µM, 36.9 µM and 78.9 µM, respectively.

`O=C1C[C@@H]2C(COC(=O)c3ccccc3)N(OCc3ccccc3)C[C@@H]2O1` (stereo partly drawn): the TGI in the experiment on HOP-62 NSCLC, in the experiment on SNB-75 CNS, in the experiment with OVCAR-4 ovarian, in the experiment on SK-MEL-28 melanoma, in the experiment with SK-MEL-5 melanoma and in the experiment with HCC-2998 colon was greater than 100 µM each time. Also, the TGI with UACC-62 melanoma, in the experiment with NCI-H522 lung and in the experiment on IGROV1 ovarian was greater than 100 µM throughout.

`CN1c2ccccc2N(C)C2C1N(C)c1ccccc1N2C` (stereo not drawn): the TGI is greater than 100 µM with HOP-62 NSCLC; 71.1 µM in the experiment on SNB-75 CNS; greater than 100 µM in the experiment on OVCAR-4 ovarian; 17.6 µM in the experiment with SK-MEL-28 melanoma; 18.4 µM with SK-MEL-5 melanoma; 30.9 µM in the experiment with HCC-2998 colon. The results for the TGI in the experiment on UACC-62 melanoma, in the experiment with NCI-H522 lung and with IGROV1 ovarian were 24.9 µM, 26 µM and greater than 100 µM, respectively.

Take `Cc1ccc(S(=O)(=O)NC(=O)NC23CC4CC(CC(F)(C4)C2)C3)cc1`: the TGI in the experiment on HOP-62 NSCLC, with SNB-75 CNS, in the experiment with SK-MEL-28 melanoma, with SK-MEL-5 melanoma, with HCC-2998 colon and in the experiment on UACC-62 melanoma was greater than 100 µM throughout. Further, the TGI with NCI-H522 lung and with IGROV1 ovarian was greater than 100 µM in each case.

Turning to `CC(=O)O[C@H]1CC[C@@]2(C)C(=CC[C@H]3C4=CC=C(C(C)=O)[C@@]4(C)CCC32)C1` (stereo partly drawn), the TGI in the experiment on HOP-62 NSCLC was greater than 100 µM; in the experiment with SNB-75 CNS it was greater than 100 µM; with OVCAR-4 ovarian, greater than 100 µM; in the experiment with SK-MEL-28 melanoma, greater than 100 µM; in the experiment on SK-MEL-5 melanoma, 40.3 µM; with HCC-2998 colon, greater than 100 µM. For the same molecule, the TGI in the experiment on UACC-62 melanoma was 46.8 µM; in the experiment with NCI-H522 lung, 46.1 µM; with IGROV1 ovarian, greater than 100 µM.

On to `CC1(C)OC(=O)C=C([O-])O1.CC1(C)OC(=O)C=C([O-])O1.O=S(=O)([O-])c1ccc([O-])c2ncccc12.O=S(=O)([O-])c1ccc([O-])c2ncccc12.[Ti+4]`, for which the GI50 with HOP-62 NSCLC was 26.3 µM; with SNB-75 CNS it was greater than 100 µM; with OVCAR-4 ovarian, greater than 100 µM; with SK-MEL-28 melanoma, greater than 100 µM; with SK-MEL-5 melanoma it was 92 µM; in the experiment with UACC-62 melanoma, 79.9 µM. Also, the GI50 is 52.4 µM with NCI-H522 lung and greater than 100 µM in the experiment on IGROV1 ovarian. Besides, the TGI was 73.1 µM with HOP-62 NSCLC; greater than 100 µM in the experiment on SNB-75 CNS; greater than 100 µM with OVCAR-4 ovarian; greater than 100 µM with SK-MEL-28 melanoma; greater than 100 µM with SK-MEL-5 melanoma; greater than 100 µM in the experiment with UACC-62 melanoma. Besides, the TGI with NCI-H522 lung and with IGROV1 ovarian was greater than 100 µM in each case.

In the case of `CCC(=O)C(C)C1=Nc2nnc(CCCCCCCc3nnc4n3C(=O)C(C(C)C(=O)CC)=N4)n2C1=O` (stereo not drawn), the TGI with HOP-62 NSCLC, with SNB-75 CNS, in the experiment with SK-MEL-28 melanoma, in the experiment with SK-MEL-5 melanoma, in the experiment on HCC-2998 colon and in the experiment with UACC-62 melanoma was greater than 100 µM in each case. Further, the TGI in the experiment on NCI-H522 lung and in the experiment on IGROV1 ovarian was greater than 100 µM in each case.

`COC1OC(CO)C(O)C(O)C1Br` (stereo not drawn): the TGI in the experiment with HOP-62 NSCLC, in the experiment with OVCAR-4 ovarian, in the experiment on SK-MEL-28 melanoma, in the experiment on SK-MEL-5 melanoma, with HCC-2998 colon and in the experiment on UACC-62 melanoma was greater than 100 µM throughout. Besides, the TGI with NCI-H522 lung and in the experiment with IGROV1 ovarian was greater than 100 µM throughout.

On to `CN1NC2(CCCCC2)ON=C1c1ccccc1`, for which the TGI in the experiment on HOP-62 NSCLC, with SNB-75 CNS, with OVCAR-4 ovarian, with SK-MEL-28 melanoma, in the experiment on SK-MEL-5 melanoma and in the experiment with UACC-62 melanoma was greater than 100 µM in each case. The TGI with NCI-H522 lung and with IGROV1 ovarian was greater than 100 µM in each case.

Turning to `C1CCN(c2nsc(N3CCCCC3)n2)CC1`, the TGI in the experiment with HOP-62 NSCLC, in the experiment on SNB-75 CNS, in the experiment on OVCAR-4 ovarian, in the experiment on SK-MEL-28 melanoma, in the experiment on SK-MEL-5 melanoma and with HCC-2998 colon was greater than 100 µM each time. The TGI in the experiment with UACC-62 melanoma, in the experiment with NCI-H522 lung and in the experiment on IGROV1 ovarian was greater than 100 µM each time.

Regarding `COc1ccc2c(c1OC)C1=C(C2=O)c2cc3c(cc2CCN1)OCO3`, the TGI is greater than 100 µM in the experiment on HOP-62 NSCLC; 5.9 µM with SNB-75 CNS; greater than 100 µM in the experiment with OVCAR-4 ovarian; greater than 100 µM in the experiment with SK-MEL-28 melanoma; 84.3 µM with SK-MEL-5 melanoma; 75.5 µM in the experiment on HCC-2998 colon. The TGI with UACC-62 melanoma and in the experiment with IGROV1 ovarian was greater than 100 µM throughout.

On to `COCC(=O)CP(=O)(OC)OC`, for which the TGI in the experiment on HOP-62 NSCLC, in the experiment on SNB-75 CNS, with OVCAR-4 ovarian, with SK-MEL-28 melanoma, in the experiment with SK-MEL-5 melanoma and in the experiment on UACC-62 melanoma was greater than 100 µM throughout. Besides, the TGI in the experiment with NCI-H522 lung and with IGROV1 ovarian was greater than 100 µM throughout.

On to `CCNC(=O)C#CC(=O)NCC`, for which the TGI in the experiment on HOP-62 NSCLC, with SNB-75 CNS, in the experiment with OVCAR-4 ovarian, with SK-MEL-28 melanoma, in the experiment on SK-MEL-5 melanoma and with HCC-2998 colon was greater than 100 µM throughout. The TGI with UACC-62 melanoma, in the experiment on NCI-H522 lung and with IGROV1 ovarian was greater than 100 µM in each case. Besides, the GI50 in the experiment with SNB-75 CNS was greater than 10 µM; in the experiment on OVCAR-4 ovarian, greater than 10 µM; in the experiment with SK-MEL-28 melanoma, greater than 100 µM; in the experiment with SK-MEL-5 melanoma it was greater than 10 µM; with HCC-2998 colon it was greater than 10 µM; in the experiment on UACC-62 melanoma, greater than 10 µM.

Consider `NC(=O)c1cc(Br)cc(C2CCCCC2)c1O`, for which the GI50 is 14.1 µM with HOP-62 NSCLC; 11.9 µM with SNB-75 CNS; 12.9 µM in the experiment on OVCAR-4 ovarian; 14 µM in the experiment on SK-MEL-28 melanoma; 15.1 µM in the experiment with SK-MEL-5 melanoma; 11.5 µM with UACC-62 melanoma. In the experiment with IGROV1 ovarian, the GI50 was 12.4 µM. Moreover, the TGI was found to be 28.4 µM with HOP-62 NSCLC; 25.9 µM in the experiment with SNB-75 CNS; 25.6 µM in the experiment with OVCAR-4 ovarian; 27.3 µM in the experiment with SK-MEL-28 melanoma; 28.9 µM with SK-MEL-5 melanoma; 23.9 µM with UACC-62 melanoma. The same molecule registered a TGI in the experiment with IGROV1 ovarian of 25.9 µM.

The record behind these values is PubChem BioAssay (NCI).
